{"source": "paper PMC12605013", "about": "“SAG1.3-derived Frizzled-targeting small-molecule compounds” (The Journal of Biological Chemistry, 2025)", "key": {"[1]": {"biological_target": "T1, muscarinic acetylcholine M1 receptor (Homo sapiens, UniProt P11229)", "T1 construct": "HA (N); expressed in transfected cells; host or cells: HEK293A cells", "T1 sequence (P11229 2-460)": "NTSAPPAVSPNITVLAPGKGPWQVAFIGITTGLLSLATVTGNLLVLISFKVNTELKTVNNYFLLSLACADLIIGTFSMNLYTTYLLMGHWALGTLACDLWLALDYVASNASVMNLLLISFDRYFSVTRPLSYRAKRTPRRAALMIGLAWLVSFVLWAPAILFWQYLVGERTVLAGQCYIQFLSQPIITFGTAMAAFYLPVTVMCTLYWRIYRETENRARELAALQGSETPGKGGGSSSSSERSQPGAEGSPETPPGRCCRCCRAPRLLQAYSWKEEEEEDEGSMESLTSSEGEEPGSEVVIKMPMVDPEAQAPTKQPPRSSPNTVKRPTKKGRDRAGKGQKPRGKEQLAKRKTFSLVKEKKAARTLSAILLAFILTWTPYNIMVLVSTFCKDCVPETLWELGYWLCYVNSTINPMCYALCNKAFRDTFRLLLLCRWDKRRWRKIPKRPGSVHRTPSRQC", "experiment": "BRET-based Venus-mGsq recruitment assay at M1R-Nluc", "format": "cell-based", "method": "The transfected cells were seeded at a density of 40,000 cells per well into a white opaque 96-well plate. […] Following a 10 min incubation period in the dark, the measurement was started on a TECAN Spark multimode microplate reader, prewarmed to 37 °C. After the three baseline measurements, the ligands diluted in HBSS were added (10 μl) and the measurement continued for a further 15 min. Nluc bioluminescence was detected between 460 and 500 nm. The emission of Venus was detected between 520 and 560 nm.\nFigure S3. […] Experiments were performed in HEK293 cells."}, "[2]": {"test_system": "LGR5 gene expression in primary human hepatocyte (PHH) spheroids", "experiment": "WNT-3A-induced LGR5 gene expression in primary human hepatocyte spheroids", "format": "cell-based", "conditions": "10 μM compound, 48 h, coaddition with WNT-3A", "method": "Cryopreserved adult PHHs were purchased from BioIVT and cultured as 3D spheroids as previously described ([35]). Briefly, PHHs were seeded in 96-well ultra-low attachment plates (Corning) at a density of 1500 cells/well in William’s E medium (Gibco) supplemented with insulin, transferrin, and selenium (Life Technologies), 100 nM dexamethasone (Sigma), and 10% fetal bovine serum (Cytiva). PHHs were treated from the start of the culture with vehicle control (dimethyl sulfoxide [DMSO]), recombinant WNT-3A, and 10 μM compound 11 for 48 h, as indicated. […]\nRNA from 24 hepatocyte spheroids per condition was isolated using Qiazol lysis reagent (QIAGEN). For expression profiling of target genes by quantitative PCR, complementary DNA synthesis was carried out using SuperScript III reverse transcriptase (Invitrogen), and expression was evaluated using Taqman probes (Table S6) according to the supplier’s instructions in a 7500 Fast Real-Time PCR system (Applied Biosystems). Gene expression was quantified using the ΔΔCt method (normalized to the average of the vehicle control from all three experiments).\nFor the WNT target gene analysis in PHH-derived spheroids, ΔΔCt values were calculated by normalization to the averaged vehicle control from three independent experiments."}, "[3]": {"test_system": "HPAF-II cells", "experiment": "Cell viability (AlamarBlue) of HPAF-II cells", "format": "cell-based, human", "conditions": "one-week treatment; 10 µM", "method": "HPAF-II cells and PANC-1 cells were seeded in DMEM at a density of 1000 cells per well into a black opaque 96-well plate (Greiner BioOne). After 1 day, the medium was exchanged with complete DMEM containing either compound 11, the porcupine inhibitor C59, or DMSO (vehicle control). After 3 days of incubation (37 °C, 5% CO2), the medium was exchanged once again with DMEM containing the same concentration of ligands or DMSO (vehicle control). Three days after (equal to 7 days after seeding), the medium was removed and 90 μl of fresh DMEM (without any ligands) were added. Last, 10 μl of AlamarBlue HS reagent (Thermo Fisher Scientific; catalog no.: A50100) were added to each well, and the cells were incubated for 4 h at 37 °C inside the incubator (5% CO2). After the incubation step, fluorescence was read using a TECAN Spark multimode microplate reader (excitation: 535 ± 25 nm, emission: 595 ± 35 nm).\nFor each cell viability experiment, the fluorescence measured in ligand-treated wells was normalized to the average fluorescence from wells treated with vehicle control (DMSO)."}, "[4]": {"test_system": "HiBiT-FZD4, HiBiT-FZD7 or HiBiT-FZD8", "experiment": "TOPFlash reporter gene assay, test for paralog selectivity", "conditions": "10 µM compound; 300 ng/mL WNT-3A", "quoted_text": "The transfected cell suspension was then seeded (45,000 cells/well) into a PDL-coated, white opaque 96-well plate. One day after transfection, cells were washed once with HBSS, and 80 μl of serum-free DMEM containing 10 nM of the porcupine inhibitor C59 were added. […] All ligands/vehicle controls were diluted in serum-free DMEM containing 10 nM C59. One day after ligand stimulation, cells were washed once with HBSS, and the lysis was started using 1× Passive Lysis Buffer (Promega; catalog no.: E1910, 20 μl/well), after which the plate was shaken for 20 min at room temperature. Fluc and Rluc bioluminescence were then assessed using the Dual-Luciferase Assay System (Promega; catalog no.: E1910, 20 μl of both LARII [Luciferase Assay II reagent] and 1× Stop-and-Glo Reagent). Measurements were performed using a TECAN Spark multimode microplate reader.\nFor reporter gene assays, the TOPFlash ratio was defined as the ratio of β-catenin-dependent gene transcription (Fluc) over a constitutively expressed transfection control (Rluc). For all experiments, the calculated TOPFlash ratios were normalized to the respective vehicle conditions.\nExperiments were performed in ΔFZD1-10 HEK293T cells transiently transfected with HiBiT-FZD4 (A), HiBiT-FZD7 (B) or HiBiT-FZD8 (C). Data represent mean values ± SEM from three independent experiments performed in triplicate. […]"}}, "data": [{"compound": "CC(=O)Nc1cccc(C(=O)NC2CCC(N(Cc3cccc(-c4ccncc4)c3)C(=O)c3sc4ccccc4c3Cl)CC2)c1", "note": "(centres unmarked) [compound 11, N-((1r,4r)-4-(3-Acetamidobenzamido)cyclohexyl)-3-chloro-N-(3-(pyridin-4-yl)benzyl)benzo[b]thiophene-2-carboxamide]", "values": [{"measurement": "Effect on carbachol-induced M1-mediated mini-Gsq response", "setting": "[1]; 10 µM compound +/- carbachol", "value": "nor affected the concentration-dependent M1-mediated mini-Gsq response"}, {"measurement": "mini-Gsq recruitment, compound alone (agonist mode)", "setting": "[1]; increasing concentrations of compound", "value": "neither elicited a mini-Gsq recruitment on its own"}, {"measurement": "Effect on WNT-3A-induced LGR5 mRNA expression", "setting": "[2]", "value": "returning mRNA expression almost back to vehicle levels"}, {"measurement": "Cell viability of RNF43-negative HPAF-II cells", "setting": "[3]", "value": "strongly reduced"}, {"measurement": "Subtype preference in TOPFlash assays", "setting": "[4]", "value": "did not show a subtype preference"}]}]}
